Reference: paper PMC2802337 (Prostaglandins, leukotrienes, and essential fatty acids, 2009)

Target: T1, 15-prostaglandin dehydrogenase/eicosanoid oxidoreductase (EOR) (Homo sapiens, UniProt P15428)
T1 sequence (P15428 1-266): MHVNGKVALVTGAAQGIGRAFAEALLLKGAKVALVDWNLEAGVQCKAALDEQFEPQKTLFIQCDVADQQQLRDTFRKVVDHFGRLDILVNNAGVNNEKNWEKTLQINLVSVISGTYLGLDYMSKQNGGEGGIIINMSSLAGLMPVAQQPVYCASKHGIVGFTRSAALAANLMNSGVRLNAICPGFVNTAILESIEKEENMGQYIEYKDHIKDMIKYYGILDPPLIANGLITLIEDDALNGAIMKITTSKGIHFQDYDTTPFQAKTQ
Experiment: spectrophotometric NADH formation at […] nm, initial rate of conversion
Type: biochemical

SMILES: CCCCC[C@H](O)/C=C/C=C\C=C\C=C\[C@@H](O)[C@@H](O)CCCC(=O)O [LXA4]
- spectrophotometric NADH formation at 340 nm, initial rate of conversion: 3.1 µM/min
